Patent publication US8772334B2, “Synergistic antimicrobial mixtures” (priority 2008, dated 2014)

Columns and labels:
mildew = assay: Outdoor exposure of wood-plastic composite panels including biocides, mildew growth (ASTM D 3274-94); set-up: key: 10 - No mildew growth; 9 - Very slight growth; 8 - Slight (very good); 7 - Some growth (good); 6 - Moderate growth (considered a failure); 4 - Pronounced growth; 2 - Severe growth; 0 - Very severe growth; conditions: WPC panel, Miami; for Mildew Growth 3 Months: 3 months outdoors; for Mildew Growth 6 Months: 6 months outdoors; for Mildew Growth 9 Months: 9 months outdoors; for Mildew Growth 12 Months: 12 months outdoors
Procedure: Several candidate biocides were tested in a typical WPC formulation, which is presented below in Table I.
WPC panels for evaluation were prepared by blending the above ingredients in a drum mixer for 30 to 35 minutes at 30 to 40 rpm and then processing the resulting mixture through a Tek Milacron extruder. This extruder is a twin-screw counter rotating conical unit having four temperature zones, for a total heated length of ten feet (3.0 m), and a 3.38 inch (86 mm) die at the exit. The temperature of extrusion was in the range of 340 to 350 degrees F. (171 to 177 degrees C.) and the WPC boards so produced had dimensions of about 5 feet (152 cm)×5½ inches (14 cm)×1 inch (2.5 cm). The WPC boards were subsequently cut into panels of one foot (30 cm) length.
Wood-plastic composite panels incorporating various biocides were prepared in accordance with the procedure set forth above in Example 1. The panels were evaluated for mildew growth by being exposed to the weather outdoors in Miami, Fla. for one year under a protocol publicly known as ASTM D 3274-94 of ASTM International (originally known as the American Society for Testing and Materials).
For the purposes of this evaluation, any biocide or combination of biocides which prevents moderate (or worse) mildew growth for an outdoor exposure period of at least 9 months is considered to have passed the weathering test.

[1] = test system: Aspergillus niger, also known as ATCC 6275; assay: MIC by spiral plater (spiral gradient endpoint) and Berenbaum FIC synergy against A. niger; type: cell-based; conditions: for MIC ppm, average of spiral plater replications: malt agar, 48 hours at 28° C., ppm of active fungicide, mean of twelve replications
From the text: A method for assessing synergy of a multi-component mixture having biologically active components is described in a technical article by M. C. Berenbaum entitled “Synergy, additivism and antagonism in immunosuppression”, which was published in the Journal of Clinical Experimental Immunology. See Clinical Exp. Immunol. 28, p. 1-18 (1977).
In the method, the dose of each agent which provides a synergistic or antagonistic effect in the overall biological effect of a mixture against a particular organism is expressed as a fraction of the dose that causes the effect when the respective agent is tested alone (hereinafter referred to as “dose of X/Xe”, “Fractional Inhibitory Concentration of agent X” or “FICX”). If the sum of the FICX's for a combination of active ingredients in a mixture is 1, the combination is additive in its effect. If the sum is less than one, the combination is synergistic. If the sum is greater than one, the combination is antagonistic. The general relationship (which may be an equality or an inequality) expressed for multi-component mixtures of biologically active components is herein designated Equation 1, as follows: […]
In order to apply the Berenbaum method to compositions of the invention, mixtures of fungicidal agents are prepared. The fungicidal activity of each of the mixtures is determined and expressed in terms of a minimum inhibitory concentration, which is just sufficient to inhibit the growth of a given microbe (hereinafter referred to “MIC”) for each of the mixtures. These MICs are subsequently used to calculate FICX for each agent X of a particular mixture. All of the FICX 's for each mixture (also known as the doses of X/Xe for the mixture) are summed, and the criteria for synergism, additivism and antagonism (as set forth above in Equation 1) are used to assess the mixture.
Minimum Inhibitory Concentrations (hereinafter referred to as “MIC”) for various mixtures of biocides were determined against spore suspensions of the fungus Aspergillus niger, also known as ATCC 6275 (hereinafter referred to as “A. niger”). […]

[2] = test system: Aureobasidium pullulans, also known as ATCC 9348; assay: MIC by spiral plater and Berenbaum FIC synergy against A. pullulans; type: cell-based; conditions: mean of twelve replications
[3] = 0.2 mass % biocide (0.2 mass % active)
[4] = 0.22 mass % biocide (0.22 mass % active)
[5] = 0.23 mass % biocide (0.23 mass % active)
[6] = 4.0 mass % biocide (4.0 mass % active)

COC(=O)Nc1nc2ccccc2[nH]1 [98% BCM, methyl-N-benzimidazol-2-ylcarbamate]
Mildew Growth 3 Months (mildew; [3]): 5
Mildew Growth 6 Months (mildew; [3]): 1
Mildew Growth 9 Months (mildew; [3]): 2
Mildew Growth 12 Months (mildew; [3]): 4

COC(=O)Nc1nc2ccccc2[nH]1 [BCM, 2-(methoxycarbonylamino)benzimidazole]
MIC ([1]; Aspergillus niger, ATCC6275, pure BCM, read-out: MIC, average of values for Mixtures No. 2 and 3): 2.6 µg/mL

O=C1C2CC=CCC2C(=O)N1SC(Cl)(Cl)Cl (stereo not drawn) [Captan]
Mildew Growth 3 Months (mildew; [4]): 9
Mildew Growth 6 Months (mildew; [4]): 1
Mildew Growth 9 Months (mildew; [4]): 2
Mildew Growth 12 Months (mildew; [4]): 4

N#Cc1c(Cl)c(Cl)c(Cl)c(C#N)c1Cl [Chlorothalonil]
Mildew Growth 3 Months (mildew; [3]): 9
Mildew Growth 6 Months (mildew; [3]): 2
Mildew Growth 9 Months (mildew; [3]): 0
Mildew Growth 12 Months (mildew; [3]): 3

O=C1c2ccccc2C(=O)N1SC(Cl)(Cl)Cl [Folpet]
Mildew Growth 3 Months (mildew; [5]): 10
Mildew Growth 6 Months (mildew; [5]): 2
Mildew Growth 9 Months (mildew; [5]): 0
Mildew Growth 12 Months (mildew; [5]): 0

CCCCNC(=O)OCC#CI [IPBC, 3-iodo-2-propynyl butyl carbamate]
MIC ppm, average of spiral plater replications [1]: 0.7 ppm

Zinc Borate [99% Zinc Borate]
Mildew Growth 3 Months (mildew; [6]): 8
Mildew Growth 6 Months (mildew; [6]): 2
Mildew Growth 9 Months (mildew; [6]): 6
Mildew Growth 12 Months (mildew; [6]): 5

zinc borate [Mixture No. 4]
MIC ppm, average of spiral plater replications [2]: > 1000 ppm

zinc borate [ZB]
MIC ppm, average of spiral plater replications [1]: 12 ppm
